Tested on: C9ORF72 patient iMNs
Assay: induced motor neuron (iMN) survival assay, glutamate treatment
Format: cell-based, human
Conditions: excess glutamate (10 μM, 12 hrs); longitudinal tracking, log-rank
Protocol: For the glutamate treatment conditions, 10 μM glutamate was added to the culture medium on day 17 and removed after 12 hrs. Cells were then maintained in N3 medium with neurotrophic factors without RepSox. For the glutamate treatment conditions with glutamate receptor antagonists, cultures were co-treated with 10 μM MK801 and CNQX, and 2 μM Nimodipine during the 12 hr glutamate treatment. The antagonists were maintained for the remainder of the experiment. For the neurotrophic factor withdrawal condition, BDNF, GDNF, and CNTF were removed from the culture medium starting at day 17. Longitudinal tracking was performed by imaging neuronal cultures in a Nikon Biostation CT or Molecular Devices ImageExpress once every 24 hrs starting at day 17. Tracking of neuronal survival was performed using SVcell 2.0 (DRVision Technologies).

## Cc1cccc(/C=N/Nc2cc(N3CCOCC3)nc(OCCc3ccccn3)n2)c1 [apilimod]
  survival of C9ORF72 patient iMNs: increased the survival

Reference: patent publication US10758545B2, “Methods to treat neurological diseases” (UNIVERSITY OF SOUTHERN CALIFORNIA, priority 2015, dated 2020)
